pEC50: −log10 of the molar value. Where “and” joins values, the source holds several entries; their conditions need not be identical. Identical values can stand only once. Like-named read-outs stand apart in the source and are kept apart here. Where a SMILES comes first, the peptide text is derived from it.
How the values were obtained:
Ae. aegypti NPYLR7 = Ae. aegypti NPYLR7 (Aedes aegypti, UniProt U5N1H5); experiment: In vitro calcium (GCaMP6s) FLIPR assay in HEK293T cells transfected with NPYLR7; type: cell-based; details: for activation at 100 µM: single replicate of the dose-response curve; for RFU: assay date 1/11/20 plate 1, duplicate wells, listed as FMFR3a
Experimental: The in vitro screening assay was adapted from, and carried out at HD Biosciences (HDB, Shanghai) as follows: HEK293T (Thermo Fisher Scientific) cells were grown in Dulbecco’s modified Eagle medium (DMEM) (high glucose, with glutamine), 10% fetal bovine serum, 1% penicillin–streptomycin (Pen/Strep), seeded in a 75 cm^2 flask, and incubated at 37 °C and 5% CO2. Cells were transiently transfected with 1 μg of each plasmid expressing GCaMP6s (Addgene […]) (Chen et al., 2013), mouse Gqα15 (Addgene #40753) (Offermanns and Simon, 1995) and Ae. aegypti NPYLR7 (Addgene #52392) (Duvall et al. 2019) using Lipofectamine 2000 (Invitrogen) in 4 ml of Opti-MEM (Invitrogen). This mixture was added to a plate after 20 min and incubated for 6–8 h. Cells were then trypsinized, resuspended in phenol-free media, and plated in a 384-well plate (Greiner Bio-One) at a density of 20,000 cells per 40 μl, and incubated overnight (37 °C, 5% CO2). Cells were imaged directly in phenol-free media. Plates were loaded into a Molecular Devices fluorescence imaging plate reader (FLIPR) with an excitation wavelength of 470–495 nm and an emitted wavelength of 515–575 nm. Plates were imaged every second for 5 min. After 30 s of baseline fluorescence recording, 10 μl of the test compound in reading buffer [Hank’s Balanced Salt Solution (Gibco) + 20 mM HEPES (Sigma-Aldrich)] was added. Concentrations tested ranged from 0 to 100 μM. Data were collected in raw fluorescence units (RFU).
Each test plate included replicates of 10 μM FMRFa3 (H‐Ala‐Gly‐Gln‐Gly‐Phe‐Met‐Arg‐Phe‐NH2), an Ae. aegypti neuropeptide agonist of NPYLR7 used to calculate the hundred percent effect (HPE). The zero percent effect (ZPE) control was calculated as a response to buffer alone. The Z′ factor was calculated for each plate by Z^′=1-3σHPE+3σZPE/|μHPE-μZPE| . Plates with Z′ < 0.5 were excluded from analysis. Raw fluorescence units (RFU) were converted to percent effect relative to the average of the ZPE and HPE. Percent effect = (sample luminescence − average ZPE)/(average HPE − average ZPE)×100. […] Each replicate was plotted as percent effect versus log[concentration], and replicates with maximal responses between 20 and 250% were used for EC50 calculations. Relative EC50 was calculated using an [Agonist] versus response–variable slope four-parameter model where Y=Bottom+(X^Hillslope)∗(Top-Bottom)/(X^HillSlope+EC50^HillSlope) . For compounds with multiple replicates, the relative EC50 of each replicate was averaged.

[1] = test system: Aedes aegypti (Orlando strain) females; experiment: Host-seeking screening assay (miniport olfactometer); type: in vivo; details: fed 1 μM in saline, tested 48 h post-meal; for Host-seeking relative to saline (test compound % host-seeking/average matched saline % host-seeking): individual replicates; for Attraction (relative to saline): per-compound value of Fig. 3C
Experimental: Groups of 60–150 females were placed in bucket cages with a diameter of 21.6 cm and height of 16.5 cm (VWR) and fasted with access to water for 24 h prior to feeding. Meals were delivered to females via Glytube membrane feeders as described previously. Meals consisted of 1.5 ml sheep blood (HemoStat Laboratories), saline (400 mM NaHCO3 + dih2O), or saline and test compound. Lyophilized compounds were stored at room temperature until use. High-concentration stocks (30 mM in 100% dimethyl sulfoxide [DMSO]) (Sigma-Aldrich) were stored at −20 °C and diluted in saline immediately prior to feeding. Once prepared, meals and glycerol heating elements were warmed in a 42 °C water bath for 15 min to provide warmth to attract mosquitos to feed. ATP (1 mM final concentration) and test compounds (1 μM final concentration) were added prior to placing the meal on top of the mesh on the cage containing female mosquitos. Females were allowed 15–20 min to feed to repletion. Abdominal engorgement was scored by eye and confirmed by weighing females to ensure full feeding (Data S1). […] Females were returned to their original cage with a diH2O wick for 48 h prior to behavioral testing. The lethality of each compound was measured by counting the number of dead females in each cage 24 h post-meal.
Miniport olfactometers were fabricated in-house as described previously. Information regarding design, construction, and use can be found at https://github.com/VosshallLab/Miniport-Construction. Miniport canisters consisted of a 6″ × 3″ × 3″ acrylic tube with a mesh screen to allow for air flow. Groups of 10–20 females were loaded into canisters 24 h post-meal. Females were left in canisters overnight to acclimate with two cotton balls soaked in diH20 to prevent desiccation. Behavior trials began 48 h post-meal. Canisters were randomly assigned to attraction traps 1–4 and given 5 min to acclimate. The stimulus end of the trap was connected to a flowmeter that supplied 5% CO2 at a rate of 30 ml/min. Thirty seconds of CO2 flow was supplied to activate females prior to opening the sliding door. Once opened, the sliding door gave females access to the attraction trap baited with a human-scented nylon stocking previously worn by the same experimenter for 8–10 h to collect body odor and stored in a plastic bag at −20 °C until use. After 5 min, the sliding door was closed and attraction was scored as mosquitoes in the attraction trap/total number of mosquitoes. For each experiment data were normalized to the matched average saline attraction from the same experiment (% attracted/average saline attraction). Any dead mosquitoes were excluded from the analysis. Non-fed females and blood-fed females served as environmental control groups while the saline-fed females served as the vehicle control each day. If non-fed or saline-fed females were less than 50% attracted or if blood-fed females were more than 20% attracted behavioral trials were halted and all data from that experimental day were discarded.

[2] = EC50 of the individual assay date/plate (assay date), read-out: EC50
[3] = Figure 1E Summary, second list (n = 48), read-out: Reported Metric (Summary list)
[4] = HEK-293T, 100 uM, normalised response
[5] = relative EC50, percent effect relative to 10 μM FMRFa3, read-out: EC50
[6] = sheet Figure 3C, unit inferred, read-out: EC50
[7] = summary EC50 per compound (mean over assay dates), the unit is taken from the neighbouring EC50 (uM) column, read-out: Reported Metric
[8] = Figure 1E Summary, third list (n = 39), read-out: Reported Metric (Summary list)
[9] = HEK-293T, single replicate, normalised response
[10] = HEK-293T, 11.1111 uM, single replicate, normalised response
[11] = HEK-293T, 33.3333 uM, single replicate, normalised response

Ae. aegypti NPYLR7, sequence (U5N1H5 entry or part of it): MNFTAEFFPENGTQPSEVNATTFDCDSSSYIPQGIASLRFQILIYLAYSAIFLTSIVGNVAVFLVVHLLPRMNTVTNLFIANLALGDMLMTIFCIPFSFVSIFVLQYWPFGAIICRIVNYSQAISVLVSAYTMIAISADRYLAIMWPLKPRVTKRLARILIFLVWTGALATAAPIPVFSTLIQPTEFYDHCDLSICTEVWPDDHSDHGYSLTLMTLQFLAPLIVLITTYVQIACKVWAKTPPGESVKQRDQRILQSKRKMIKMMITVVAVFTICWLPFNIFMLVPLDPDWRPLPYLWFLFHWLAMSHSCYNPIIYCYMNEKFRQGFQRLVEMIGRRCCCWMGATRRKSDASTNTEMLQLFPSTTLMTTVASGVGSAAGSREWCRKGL

| SMILES | pEC50 (Ae. aegypti NPYLR7; [2]) | activation at 100 µM (Ae. aegypti NPYLR7; [4]) | pEC50 (Ae. aegypti NPYLR7; [5]) | EC50 (Ae. aegypti NPYLR7; [6]) | EC50 (Ae. aegypti NPYLR7; [7]) | Attraction (relative to saline) [1] | pEC50 (Ae. aegypti NPYLR7; [8]) | activation at 11.1111 µM (Ae. aegypti NPYLR7; [10]) | activation at 33.3333 µM (Ae. aegypti NPYLR7; [11]) | further results |
| --- | --- | --- | --- | --- | --- | --- | --- | --- | --- | --- |
| Cc1nc(NC(=N)N)nc2cc(OCC3CCCOC3)ccc12 (stereo not drawn) [TDI-014167] | 5.13 | 66.1% | 5.13 | 7.37 µM | 7.37 µM | 0.975 |  |  |  | pEC50 (Ae. aegypti NPYLR7; [3]): 5.13; Host-seeking relative to saline (test compound % host-seeking/average matched saline % host-seeking) ([1]; listed as TDI-04167): 0.97 |
| Cc1nc(NC(=N)N)nc2cc(OCc3ccc(S(C)(=O)=O)cc3)ccc12 [TDI-014182] | 6.65 |  | 6.65 | 0.222 µM | 0.222 µM | 0.9 | 6.65 | 90.2% | 80.3% | activation at 0.4115 µM (Ae. aegypti NPYLR7; [9]): 32%; activation at 1.2346 µM (Ae. aegypti NPYLR7; [9]): 62.2%; activation at 3.7037 µM (Ae. aegypti NPYLR7; [9]): 77.6% |
| CNc1nc(NC(=N)N)nc2cc(OCc3ccc(OC)cc3)ccc12 [TDI-014190] | 7.74 | 91.9% | 7.74 | 0.0181 µM | 0.0181 µM | 0.805 | 7.74 | 69.9% | 92.1% | activation at 0.1372 µM (Ae. aegypti NPYLR7; [9]): 46.8%; activation at 1.2346 µM (Ae. aegypti NPYLR7; [9]): 77.5% |
| Cc1nc(NC(=N)N)nc2cc(OCC(F)(F)F)ccc12 [TDI-014168] | 5.37 | 74.2% | 5.37 | 4.26 µM | 4.26 µM | 1.03 |  |  | 80.4% | pEC50 (Ae. aegypti NPYLR7; [3]): 5.37; Host-seeking relative to saline (test compound % host-seeking/average matched saline % host-seeking) ([1]; listed as TDI-04168): 1.07 |
| CSCC[C@H](NC(=O)[C@H](Cc1ccccc1)NC(=O)CNC(=O)[C@H](CCC(N)=O)NC(=O)CNC(=O)[C@H](C)N)C(=O)N[C@@H](CCCNC(=N)N)C(=O)N[C@@H](Cc1ccccc1)C(N)=O [FMRF3a] (H-AGQGFMRF-NH2) |  |  |  |  |  |  |  |  |  | response at 0.0017(uM) (Ae. aegypti NPYLR7; 0.0017 uM, single replicate, normalised response): 2.545; response at 0.0051(uM) (Ae. aegypti NPYLR7; 0.0051 uM, single replicate, normalised response): -0.01361; EC50 (Ae. aegypti NPYLR7; EC50 (uM), EC50 of the individual assay date/plate (assay date)): 2.4 µM and 3.76 µM and 1.51 µM and 8.78 µM and 4.23 µM and 2.6 µM and 8.21 µM and 1.15 µM and 4.22 µM and 4.26 µM; EC50 (Ae. aegypti NPYLR7; Reported Metric, summary EC50 per compound (mean over assay dates), the unit is taken from the neighbouring EC50 (uM) column): 4.11 µM |
| COc1ccc(COc2ccc3c(C)nc(NC(=N)N)nc3c2)cc1OC [TDI-014180] | 8.72 | 63.8% | 8.72 | 0.00192 µM | 0.00192 µM | 0.93 | 8.72 | 74% | 81.8% | activation at 0.0152 µM (Ae. aegypti NPYLR7; HEK-293T, 0.0152 uM, single replicate, normalised response): 42.4%; activation at 0.0457 µM (Ae. aegypti NPYLR7; HEK-293T, 0.0457 uM, single replicate, normalised response): 59.4%; activation at 0.1372 µM (Ae. aegypti NPYLR7; [9]): 67.9%; activation at 0.4115 µM (Ae. aegypti NPYLR7; [9]): 85.1%; activation at 3.7037 µM (Ae. aegypti NPYLR7; [9]): 96.7%; Host-seeking relative to saline (test compound % host-seeking/average matched saline % host-seeking) ([1]; listed as TDI-04180): 0.93 |
| COc1ccc(COc2ccc3c(C)nc(NC(=N)N)nc3c2)cc1 [TDI-013000] |  |  | 7.56 |  |  | 0.925 | 7.56 |  |  | pEC50 (Ae. aegypti NPYLR7; Figure 1E summary value per compound, repeated on each replicate line, read-out: Reported Metric (EC50 summarised over assay dates)): 7.56; pEC50 (Ae. aegypti NPYLR7; fit per assay date/plate (c2), repeated on the replicate lines of one date, read-out: EC50): 7.09 and 7.55; EC50 (Ae. aegypti NPYLR7; summary value per compound, matches the mean of the EC50 (uM) values of the assay dates, column head prints no unit, Figure 1 Panel E, read-out: Reported Metric): 0.0277 µM |
| Cc1nc(NC(=N)N)nc2cc(OC(F)(F)F)ccc12 [TDI-012613] |  |  | 5.47 |  |  |  | 5.47 |  |  | pEC50 (Ae. aegypti NPYLR7; Figure 1E, EC50 of the single assay date/plate, read-out: EC50): 5.27 and 5.87; pEC50 (Ae. aegypti NPYLR7; Figure 1E, metric reported per compound, repeated on every replicate line, read-out: Reported Metric (EC50)): 5.47; activation at 11.1111 µM (Ae. aegypti NPYLR7; HEK-293T, compound 11.1111 uM, single replicate well, read-out: response at 11.1111): 43.1%; activation at 33.3333 µM (Ae. aegypti NPYLR7; HEK-293T, compound 33.3333 uM, single replicate well, read-out: response at 33.3333): 69.7% |
| CSCC[C@H](NC(=O)[C@H](Cc1ccccc1)NC(=O)CNC(=O)[C@H](CCC(N)=O)NC(=O)CNC(=O)[C@H](C)N)C(=O)N[C@@H](CCCNC(=N)N)C(=O)N[C@@H](Cc1ccccc1)C(N)=O [FMRFa3, H‐Ala‐Gly‐Gln‐Gly‐Phe‐Met‐Arg‐Phe‐NH2, reference compound] (H-AGQGFMRF-NH2) |  |  |  |  |  |  |  |  |  | RFU (Ae. aegypti NPYLR7; 0.00169350878084303uM): 65 RFU and 68 RFU; RFU (Ae. aegypti NPYLR7; 0.00508052634252909uM): 68 RFU and 63 RFU; RFU (Ae. aegypti NPYLR7; 0.0152415790275873uM): 60 RFU and 54 RFU; RFU (Ae. aegypti NPYLR7; 0.0457247370827618uM): 68 RFU and 57 RFU; RFU (Ae. aegypti NPYLR7; 0.137174211248285uM): 60 RFU and 61 RFU; RFU (Ae. aegypti NPYLR7; 0.411522633744856uM): 69 RFU and 63 RFU; RFU (Ae. aegypti NPYLR7; 1.23456790123457uM): 164 RFU and 112 RFU; RFU (Ae. aegypti NPYLR7; 3.7037037037037uM): 199 RFU and 204 RFU; RFU (Ae. aegypti NPYLR7; 11.1111111111111 uM): 247 RFU and 275 RFU; RFU (Ae. aegypti NPYLR7; 33.333333 uM): 320 RFU and 317 RFU; RFU (Ae. aegypti NPYLR7; 100 uM): 354 RFU and 310 RFU |
